Laboratory results: PubChem BioAssay (NCI)
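In this assay, cells in 96-well plates receive the compound at five concentrations for 48 hours. Endpoints are linearly interpolated between the surrounding concentrations. TGI denotes the concentration required for complete inhibition of growth.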

Assays:
Experiment in all cases: NCI tumour cell line growth inhibition, 48 h
786-0 renal = test system: 786-0 renal
A498 renal = test system: A498 renal
A549 NSCLC = test system: A549 NSCLC
ACHN renal = test system: ACHN renal
BT-549 breast = test system: BT-549 breast
CAKI-1 renal = test system: CAKI-1 renal
CCRF-CEM leukemia = test system: CCRF-CEM leukemia
COLO 205 colon = test system: COLO 205 colon
DU-145 prostate = test system: DU-145 prostate
EKVX NSCLC = test system: EKVX NSCLC
HCC-2998 colon = test system: HCC-2998 colon
HCT-116 colon = test system: HCT-116 colon
HCT-15 colon = test system: HCT-15 colon
HL-60(TB) leukemia = test system: HL-60(TB) leukemia
HOP-62 NSCLC = test system: HOP-62 NSCLC
HOP-92 NSCLC = test system: HOP-92 NSCLC
HS 578T breast = test system: HS 578T breast
HT29 colon = test system: HT29 colon
IGROV1 ovarian = test system: IGROV1 ovarian
K-562 leukemia = test system: K-562 leukemia
KM12 colon = test system: KM12 colon
LOX IMVI melanoma = test system: LOX IMVI melanoma
M14 melanoma = test system: M14 melanoma
MALME-3M melanoma = test system: MALME-3M melanoma
MCF7 breast = test system: MCF7 breast
MDA-MB-231 breast = test system: MDA-MB-231 breast
MDA-MB-435 = test system: MDA-MB-435
MDA-N = test system: MDA-N
MOLT-4 leukemia = test system: MOLT-4 leukemia
NCI-H226 lung = test system: NCI-H226 lung
NCI-H23 lung = test system: NCI-H23 lung
NCI-H460 lung = test system: NCI-H460 lung
NCI-H522 lung = test system: NCI-H522 lung
NCI/ADR-RES ovarian = test system: NCI/ADR-RES ovarian
OVCAR-3 ovarian = test system: OVCAR-3 ovarian
OVCAR-4 ovarian = test system: OVCAR-4 ovarian
OVCAR-5 ovarian = test system: OVCAR-5 ovarian
OVCAR-8 ovarian = test system: OVCAR-8 ovarian
PC-3 prostate = test system: PC-3 prostate
RPMI-8226 leukemia = test system: RPMI-8226 leukemia
RXF 393 renal = test system: RXF 393 renal
SF-268 CNS = test system: SF-268 CNS
SF-295 CNS = test system: SF-295 CNS
SF-539 CNS = test system: SF-539 CNS
SK-MEL-2 melanoma = test system: SK-MEL-2 melanoma
SK-MEL-28 melanoma = test system: SK-MEL-28 melanoma
SK-MEL-5 melanoma = test system: SK-MEL-5 melanoma
SK-OV-3 ovarian = test system: SK-OV-3 ovarian
SN12C renal = test system: SN12C renal
SNB-19 CNS = test system: SNB-19 CNS
SNB-75 CNS = test system: SNB-75 CNS
SW-620 colon = test system: SW-620 colon
T-47D breast = test system: T-47D breast
TK-10 renal = test system: TK-10 renal
U251 CNS = test system: U251 CNS
UACC-257 melanoma = test system: UACC-257 melanoma
UACC-62 melanoma = test system: UACC-62 melanoma
UO-31 renal = test system: UO-31 renal

Compound: COc1ccc2c(c1)c(=O)c1c(NCCNCCO)ccc3c(=O)n(CCN(C)C)c(=O)n2c31
- TGI (786-0 renal): 0.892 µM
- TGI (A498 renal): 0.534 µM
- TGI (A549 NSCLC): 3.17 µM
- TGI (ACHN renal): 1.49 µM
- TGI (BT-549 breast): 2.49 µM
- TGI (CAKI-1 renal): 2.79 µM
- TGI (CCRF-CEM leukemia): > 100 µM
- TGI (COLO 205 colon): 0.247 µM
- TGI (DU-145 prostate): 0.31 µM
- TGI (EKVX NSCLC): 0.819 µM
- TGI (HCC-2998 colon): 0.234 µM
- TGI (HCT-116 colon): 0.348 µM
- TGI (HCT-15 colon): 6.39 µM
- TGI (HL-60(TB) leukemia): > 100 µM
- TGI (HOP-62 NSCLC): 2.4 µM
- TGI (HOP-92 NSCLC): 0.775 µM
- TGI (HS 578T breast): 0.581 µM
- TGI (HT29 colon): 0.425 µM
- TGI (IGROV1 ovarian): 1.46 µM
- TGI (K-562 leukemia): 0.333 µM
- TGI (KM12 colon): 0.831 µM
- TGI (LOX IMVI melanoma): 1.11 µM
- TGI (M14 melanoma): 1.86 µM
- TGI (MALME-3M melanoma): 0.449 µM
- TGI (MCF7 breast): 3.54 µM
- TGI (MDA-MB-231 breast): 0.508 µM
- TGI (MDA-MB-435): 0.305 µM
- TGI (MDA-N): 0.279 µM
- TGI (MOLT-4 leukemia): > 100 µM
- TGI (NCI-H226 lung): 0.912 µM
- TGI (NCI-H23 lung): 0.271 µM
- TGI (NCI-H460 lung): 0.266 µM
- TGI (NCI-H522 lung): 0.0868 µM
- TGI (NCI/ADR-RES ovarian): 15 µM
- TGI (OVCAR-3 ovarian): 4.62 µM
- TGI (OVCAR-4 ovarian): 0.511 µM
- TGI (OVCAR-5 ovarian): 3.05 µM
- TGI (OVCAR-8 ovarian): 1.16 µM
- TGI (PC-3 prostate): 0.624 µM
- TGI (RPMI-8226 leukemia): 1.15 µM
- TGI (RXF 393 renal): 0.266 µM
- TGI (SF-268 CNS): 0.619 µM
- TGI (SF-295 CNS): 1.84 µM
- TGI (SF-539 CNS): 0.612 µM
- TGI (SK-MEL-2 melanoma): 0.634 µM
- TGI (SK-MEL-28 melanoma): 1.34 µM
- TGI (SK-MEL-5 melanoma): 0.598 µM
- TGI (SK-OV-3 ovarian): 2.71 µM
- TGI (SN12C renal): 0.64 µM
- TGI (SNB-19 CNS): 0.997 µM
- TGI (SNB-75 CNS): 0.503 µM
- TGI (SW-620 colon): 5.94 µM
- TGI (T-47D breast): 0.541 µM
- TGI (TK-10 renal): 4.53 µM
- TGI (U251 CNS): 0.937 µM
- TGI (UACC-257 melanoma): 1.06 µM
- TGI (UACC-62 melanoma): 0.293 µM
- TGI (UO-31 renal): 1.61 µM

Compound: O=c1c2ccccc2sc2ccccc12
- TGI (786-0 renal): > 100 µM
- TGI (A498 renal): > 100 µM
- TGI (A549 NSCLC): > 100 µM
- TGI (ACHN renal): > 100 µM
- TGI (BT-549 breast): > 100 µM
- TGI (CAKI-1 renal): > 100 µM
- TGI (CCRF-CEM leukemia): > 100 µM
- TGI (COLO 205 colon): > 100 µM
- TGI (DU-145 prostate): > 100 µM
- TGI (EKVX NSCLC): > 100 µM
- TGI (HCC-2998 colon): > 100 µM
- TGI (HCT-116 colon): > 100 µM
- TGI (HCT-15 colon): > 100 µM
- TGI (HL-60(TB) leukemia): > 100 µM
- TGI (HOP-62 NSCLC): > 100 µM
- TGI (HOP-92 NSCLC): > 100 µM
- TGI (HS 578T breast): > 100 µM
- TGI (HT29 colon): > 100 µM
- TGI (IGROV1 ovarian): > 100 µM
- TGI (K-562 leukemia): > 100 µM
- TGI (KM12 colon): > 100 µM
- TGI (LOX IMVI melanoma): > 100 µM
- TGI (M14 melanoma): > 100 µM
- TGI (MALME-3M melanoma): > 100 µM
- TGI (MCF7 breast): > 100 µM
- TGI (MDA-MB-231 breast): > 100 µM
- TGI (MDA-MB-435): > 100 µM
- TGI (MDA-N): > 100 µM
- TGI (MOLT-4 leukemia): > 100 µM
- TGI (NCI-H226 lung): > 100 µM
- TGI (NCI-H23 lung): > 100 µM
- TGI (NCI-H460 lung): > 100 µM
- TGI (NCI-H522 lung): > 100 µM
- TGI (NCI/ADR-RES ovarian): > 100 µM
- TGI (OVCAR-3 ovarian): > 100 µM
- TGI (OVCAR-4 ovarian): > 100 µM
- TGI (OVCAR-5 ovarian): > 100 µM
- TGI (OVCAR-8 ovarian): > 100 µM
- TGI (PC-3 prostate): > 100 µM
- TGI (RPMI-8226 leukemia): > 100 µM
- TGI (RXF 393 renal): > 100 µM
- TGI (SF-268 CNS): > 100 µM
- TGI (SF-295 CNS): > 100 µM
- TGI (SF-539 CNS): > 100 µM
- TGI (SK-MEL-2 melanoma): > 100 µM
- TGI (SK-MEL-28 melanoma): > 100 µM
- TGI (SK-MEL-5 melanoma): > 100 µM
- TGI (SK-OV-3 ovarian): > 100 µM
- TGI (SN12C renal): > 100 µM
- TGI (SNB-19 CNS): > 100 µM
- TGI (SNB-75 CNS): > 100 µM
- TGI (SW-620 colon): > 100 µM
- TGI (T-47D breast): > 100 µM
- TGI (TK-10 renal): > 100 µM
- TGI (U251 CNS): > 100 µM
- TGI (UACC-257 melanoma): > 100 µM
- TGI (UACC-62 melanoma): > 100 µM
- TGI (UO-31 renal): > 100 µM
